Results: patent US20120288443A1, “LABELLED PYRROLYL-OXADIAZOLYL-DIAZABICYCLONONANE DERIVATIVES AND THEIR USE IN DIAGNOSTIC METHODS” (N[…]/S, priority 2009, published 2012)

What was measured:
[1] = molecular target: T1, nicotinic α7 acetylcholine receptor (Sus scrofa, UniProt F1SNR6); assay: Receptor occupancy by PET (occupancy plotting of logan plot VT) after pre-treatment with cold ligand; type: in vivo, Danish Landrace pigs; parameters: nicotinic α7 acetylcholine receptor in the pig brain; from tissue; host or cells: brain of living Danish Landrace pigs (in vivo PET); settings: for occupancy of nicotinic α7 acetylcholine receptors: pre-treatment 10 mg/kg iv Compound 1 (cold ligand)
Protocol: (§1) Compound 1 was given as an intravenous bolus injection to a total of five Danish Landrace pigs, and the pigs were subsequently scanned for 90 minutes in a high resolution research tomography (HRRT) PET scanner. Hereafter, the pigs were re-scanned after pre-treatment with cold ligand, either Compound 1 (10 mg/kg, iv) or SSR180711 (1 mg/kg or 10 mg/kg, iv).

[2] = molecular target: T1, nicotinic α7 acetylcholine receptor; assay: Distribution volumes (VT) of Compound 1 in pig brain by PET, baseline vs pre-treatment; type: in vivo; parameters: nicotinic α7 acetylcholine receptor in the pig brain; from tissue; host or cells: brain of living pigs (in vivo PET); settings: for change of distribution volume (VT) of Compound 1 tracer following pre-treatment: pig brain, Logan plot kinetic modelling, pre-treatment 10 mg/kg Compound 1 or 1 or 10 mg/kg SSR180711 i.v.
Protocol: The distribution volumes are determined in the pig brain at baseline, or following pre-treatment with either Compound 1 or SSR180711.
Five pigs were PET scanned at baseline with Compound 1 in the HRRT scanner. Subsequently, the pigs were administered either 10 mg/kg Compound 1 or SSR180711 (1 mg/kg or 10 mg/kg, i.v.), and 30 minutes or 4 hours later, the pigs were scanned a second time using the same PET protocol.
VT is a measure of concentrations of Compound 1 in a given region relative to the plasma concentration. VT was calculated by kinetic modelling using Logan plot linearization. All kinetic modelling was done in PMOD version 3.0 (PMOD technologies, Inc.).

[3] = PET scan of brain uptake and distribution after i.v. bolus injection; type: in vivo, Danish Landrace pigs; settings: pig, 90 minutes HRRT PET scan
Protocol: Five Danish Landrace pigs were PET scanned in a high-resolution research tomography (HRRT) scanner after i.v. bolus injection of Compound 1 at t=0 mins. Points and connecting line indicate regional radioactive concentration normalized to injected dose per kg body weight, i.e. standardized uptake values (SUV).
as §1
Pre-treatment with Compound 1 and SSR180711 lead to a decline in the distribution volumes (VT) of Compound 1 as determined with logan plot kinetic modelling.

T1 sequence (F1SNR6 20-499): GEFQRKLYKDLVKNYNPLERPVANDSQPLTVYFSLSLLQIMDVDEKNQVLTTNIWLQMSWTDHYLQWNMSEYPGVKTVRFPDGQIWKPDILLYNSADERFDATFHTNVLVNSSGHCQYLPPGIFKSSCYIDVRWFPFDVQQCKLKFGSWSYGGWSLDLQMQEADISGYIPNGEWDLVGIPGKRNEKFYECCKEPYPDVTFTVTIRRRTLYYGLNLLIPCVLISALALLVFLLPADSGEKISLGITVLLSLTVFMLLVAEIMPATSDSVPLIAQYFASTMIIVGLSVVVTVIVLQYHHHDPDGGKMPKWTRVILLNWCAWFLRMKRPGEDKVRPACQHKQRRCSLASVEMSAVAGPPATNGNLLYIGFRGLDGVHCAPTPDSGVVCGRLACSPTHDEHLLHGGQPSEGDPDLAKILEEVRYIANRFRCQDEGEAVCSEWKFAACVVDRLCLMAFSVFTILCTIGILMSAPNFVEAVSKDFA

receptor occupancy at 1 mg/kg ([1]; pig, iv, pre-treatment 1 mg/kg iv SSR180711, tracer Compound 1, read-out: occupancy of nicotinic α7 acetylcholine receptor in the pig brain) [%]	receptor occupancy at 10 mg/kg ([1]; pig, iv, pre-treatment 10 mg/kg iv SSR180711, tracer Compound 1, two values 'respectively', read-out: occupancy of nicotinic α7 acetylcholine receptor in the pig brain) [%]	occupancy of nicotinic α7 acetylcholine receptor in the pig brain ([1]; pre-treatment 10 mg/kg iv SSR180711, tracer Compound 1, two values 'respectively') [%]	Compound	occupancy of nicotinic α7 acetylcholine receptors ([1]; inter-scan interval 4 hours) [%]	occupancy of nicotinic α7 acetylcholine receptors ([1]; second scan 30 minutes after pre-treatment) [%]	binding to nicotinic α7 acetylcholine receptor in the pig brain ([2]; concluded from VT decrease after pre-treatment)	change of distribution volume (VT) of Compound 1 tracer following pre-treatment [2]	brain entry and regional distribution [3]
–	–	–	2-(1,4-Diazabicyclo[3.2.2]nonan-4-yl)-5-(1-[^11C]methylpyrrol-2-yl)-1,3,4-oxadiazole [Compound 1]	43	81	binds specifically and selectively	decreased	entered into the pig brain, and the distribution was mainly found in the cerebral cortex and the thalamus
52	70	59	O=C(Oc1ccc(Br)cc1)N1CCN2CCC1CC2 [SSR180711, 1,4-Diazabicyclo[3.2.2]nonane-4-carboxylic acid, 4-bromophenyl ester]	–	–	–	decreased	–
